Reference: US20240343681A1, “MOLECULES HAVING PESTICIDAL UTILITY AND INTERMEDIATES AND PROCESSES RELATED THERETO” (priority 2021, published 2024)

Assays:
[1] = tested on: Beet Armyworm (Spodoptera exigua, LAPHEG) second instar larva; test: Bioassay on beet armyworm (BAW), 128-well diet tray assay; format: in vivo; conditions: 50 μg/cm^2 on artificial diet, 25° C., five days
Outline: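 Test molecule in 90:10 acetone–water applied at 50 μg/cm^2 onto 1 mL artificial diet and dried; one second-instar larva per well, eight wells. Held 5 days at 25 °C, 14:10 light–dark; percent mortality averaged over the eight wells.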

[2] = tested on: Yellow Fever Mosquito (Aedes aegypti, AEDSAE) larvae; test: Bioassay on yellow fever mosquito (YFM), 96-well plate larval assay; format: in vivo; conditions: 4000 ppm (master plate solution), about 1 day-old larvae, 3 days

| SMILES | activity against BAW (percent mortality, averaged over eight wells) [1] | activity against YFM (scored based on mortality) [2] |
| --- | --- | --- |
| O=C(Nc1cc(NC(=O)[C@H]2[C@H](c3cc(Cl)cc(Cl)c3)C2(Cl)Cl)ccc1Cl)c1ccc(F)c(F)c1 (racemic) [F67, trans-rac-N-(2-Chloro-5-(2,2-dichloro-3-(3,5-dichlorophenyl)cyclopropane-1-carboxamido)phenyl)-3,4-difluorobenzamide] | exhibited activity | exhibited activity |
| O=C(Nc1cc(NC(=O)[C@H]2[C@H](c3cc(Cl)cc(Cl)c3)C2(Cl)Cl)ccc1Cl)c1cccc(F)c1F (racemic) [F68, trans-rac-N-(2-Chloro-5-(2,2-dichloro-3-(3,5-dichlorophenyl)cyclopropane-1-carboxamido)phenyl)-2,3-difluorobenzamide] | exhibited activity | exhibited activity |
| O=C(Nc1cc(NC(=O)[C@H]2[C@H](c3cc(Cl)cc(Cl)c3)C2(Cl)Cl)ccc1Cl)c1cc(F)ccc1F (racemic) [F69, trans-rac-N-(2-Chloro-5-(2,2-dichloro-3-(3,5-dichlorophenyl)cyclopropane-1-carboxamido)phenyl)-2,5-difluorobenzamide] | exhibited activity | exhibited activity |
| N#Cc1ccc(C(=O)Nc2cc(NC(=O)[C@H]3[C@H](c4cc(Cl)cc(Cl)c4)C3(Cl)Cl)ccc2Cl)cc1 (racemic) [F70, trans-rac-N-(2-Chloro-5-(2,2-dichloro-3-(3,5-dichlorophenyl)cyclopropane-1-carboxamido)phenyl)-4-cyanobenzamide] | exhibited activity | exhibited activity |
| N#Cc1ccc(C(=O)Nc2cc(NC(=O)[C@H]3[C@H](c4cc(Cl)cc(Cl)c4)C3(Cl)Cl)ccc2Cl)c(F)c1 (racemic) [F71, trans-rac-N-(2-Chloro-5-(2,2-dichloro-3-(3,5-dichlorophenyl)cyclopropane-1-carboxamido)phenyl)-4-cyano-2-fluorobenzamide] | exhibited activity | exhibited activity |
| N#Cc1ccc(C(=O)Nc2cc(NC(=O)[C@H]3[C@H](c4cc(Cl)cc(Cl)c4)C3(Cl)Cl)ccc2Cl)cc1F (racemic) [F72, trans-rac-N-(2-Chloro-5-(2,2-dichloro-3-(3,5-dichlorophenyl)cyclopropane-1-carboxamido)phenyl)-4-cyano-3-fluorobenzamide] | exhibited activity | exhibited activity |
| Cc1cccc(C(=O)Nc2cc(NC(=O)[C@H]3[C@H](c4cc(Cl)cc(Cl)c4)C3(Cl)Cl)ccc2Cl)c1 (racemic) [F74, trans-rac-N-(2-Chloro-5-(2,2-dichloro-3-(3,5-dichlorophenyl)cyclopropane-1-carboxamido)phenyl)-3-methylbenzamide] | exhibited activity | exhibited activity |
| Cc1ccc(C(=O)Nc2cc(NC(=O)[C@H]3[C@H](c4cc(Cl)cc(Cl)c4)C3(Cl)Cl)ccc2Cl)cc1 (racemic) [F75, trans-rac-N-(2-Chloro-5-(2,2-dichloro-3-(3,5-dichlorophenyl)cyclopropane-1-carboxamido)phenyl)-4-methylbenzamide] | exhibited activity | exhibited activity |
| Cc1cc(F)ccc1C(=O)Nc1cc(NC(=O)[C@H]2[C@H](c3cc(Cl)cc(Cl)c3)C2(Cl)Cl)ccc1Cl (racemic) [F77, trans-rac-N-(2-Chloro-5-(2,2-dichloro-3-(3,5-dichlorophenyl)cyclopropane-1-carboxamido)phenyl)-4-fluoro-2-methylbenzamide] | exhibited activity | exhibited activity |
| O=C(Nc1cc(NC(=O)[C@H]2[C@H](c3cc(Cl)cc(Cl)c3)C2(Cl)Cl)ccc1Cl)c1ccccc1Cl (racemic) [F78, trans-rac-2-Chloro-N-(2-chloro-5-(2,2-dichloro-3-(3,5-dichlorophenyl)cyclopropane-1-carboxamido)phenyl)benzamide] | exhibited activity | exhibited activity |
| O=C(Nc1cc(NC(=O)[C@H]2[C@H](c3cc(Cl)cc(Cl)c3)C2(Cl)Cl)ccc1Cl)c1ccc(Cl)cc1 (racemic) [F79, trans-rac-4-Chloro-N-(2-chloro-5-(2,2-dichloro-3-(3,5-dichlorophenyl)cyclopropane-1-carboxamido)phenyl)benzamide] | exhibited activity | exhibited activity |
| O=C(Nc1cc(NC(=O)[C@H]2[C@H](c3cc(Cl)cc(Cl)c3)C2(Cl)Cl)ccc1Cl)c1cc(Cl)cc(Cl)c1 (racemic) [F80, trans-rac-3,5-Dichloro-N-(2-chloro-5-(2,2-dichloro-3-(3,5-dichlorophenyl)cyclopropane-1-carboxamido)phenyl)benzamide] | exhibited activity | exhibited activity |
| O=C(Nc1cc(NC(=O)[C@H]2[C@H](c3cc(Cl)cc(Cl)c3)C2(Cl)Cl)ccc1Cl)c1ccc(C(F)(F)F)cc1 (racemic) [F82, trans-rac-N-(2-Chloro-5-(2,2-dichloro-3-(3,5-dichlorophenyl)cyclopropane-1-carboxamido)phenyl)-4-(trifluoromethyl)benzamide] | exhibited activity | exhibited activity |
| O=C(Nc1cc(NC(=O)[C@H]2[C@H](c3cc(Cl)cc(Cl)c3)C2(Cl)Cl)ccc1Cl)c1ccc(F)c(C(F)(F)F)c1 (racemic) [F83, trans-rac-N-(2-Chloro-5-(2,2-dichloro-3-(3,5-dichlorophenyl)cyclopropane-1-carboxamido)phenyl)-4-fluoro-3-(trifluoromethyl)benzamide] | exhibited activity | exhibited activity |
| COc1cccc(C(=O)Nc2cc(NC(=O)[C@H]3[C@H](c4cc(Cl)cc(Cl)c4)C3(Cl)Cl)ccc2Cl)c1 (racemic) [F84, trans-rac-N-(2-Chloro-5-(2,2-dichloro-3-(3,5-dichlorophenyl)cyclopropane-1-carboxamido)phenyl)-3-methoxybenzamide] | exhibited activity | exhibited activity |
| COc1ccc(C(=O)Nc2cc(NC(=O)[C@H]3[C@H](c4cc(Cl)cc(Cl)c4)C3(Cl)Cl)ccc2Cl)cc1 (racemic) [F85, trans-rac-N-(2-Chloro-5-(2,2-dichloro-3-(3,5-dichlorophenyl)cyclopropane-1-carboxamido)phenyl)-4-methoxybenzamide] | exhibited activity | exhibited activity |
